Earlier results as cited in US20110145936A1, “Genetically Modified Rat Models for Pharmacokinetics” (priority 2009, published 2011).

What was measured:
Abcb1 = details: for direct liver mediated excretion: Abcb1-/- vs WT mice, cannulation of the gall bladder
Abcc1 = Abcc1 (Mus musculus, UniProt O35379); details: for white blood cell, bone marrow nucleated cell and spleen myeloid activity: Abcc1 KO mice after etoposide
Abcg2 & Abcb1 = details: gene Abcg2 & Abcb1
Slc22a8 = Slc22a8 (Mus musculus, UniProt Q9WTW5); details: gene Slc22a8
Abcb11 = Abcb11 (Mus musculus, UniProt Q9QY30)
Abcg2 = target: T1, Abcg2 (Mus musculus, UniProt Q7TMS5); details: Abcg2-/- mice vs WT
T1 construct: host or cells: whole animal: WT mice versus Abcg2-/- mice
T1 sequence (Q7TMS5 1-657): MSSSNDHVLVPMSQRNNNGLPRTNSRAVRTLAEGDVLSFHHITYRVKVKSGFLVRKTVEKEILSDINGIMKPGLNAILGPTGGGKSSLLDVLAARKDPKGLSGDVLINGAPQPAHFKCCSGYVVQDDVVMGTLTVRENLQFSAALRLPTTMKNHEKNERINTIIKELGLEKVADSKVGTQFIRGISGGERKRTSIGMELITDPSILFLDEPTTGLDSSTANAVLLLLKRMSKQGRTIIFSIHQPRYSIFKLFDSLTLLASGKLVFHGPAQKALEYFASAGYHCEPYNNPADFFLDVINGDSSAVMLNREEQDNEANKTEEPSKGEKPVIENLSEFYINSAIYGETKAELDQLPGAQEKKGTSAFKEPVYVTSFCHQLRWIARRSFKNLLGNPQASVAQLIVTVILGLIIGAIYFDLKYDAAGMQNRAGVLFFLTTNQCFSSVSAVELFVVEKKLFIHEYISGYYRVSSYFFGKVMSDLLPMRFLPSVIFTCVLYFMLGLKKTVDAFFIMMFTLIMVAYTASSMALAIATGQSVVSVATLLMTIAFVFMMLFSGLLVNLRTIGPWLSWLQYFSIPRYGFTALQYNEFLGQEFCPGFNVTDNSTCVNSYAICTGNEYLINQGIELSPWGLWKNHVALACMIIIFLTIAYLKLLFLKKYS

Slc7a11 = target: T2, Slc7a11 (Homo sapiens, UniProt Q9UPY5); details: WT Slc7a11 cells; more sensitive to the GA analog
T2 sequence (Q9UPY5 1-501): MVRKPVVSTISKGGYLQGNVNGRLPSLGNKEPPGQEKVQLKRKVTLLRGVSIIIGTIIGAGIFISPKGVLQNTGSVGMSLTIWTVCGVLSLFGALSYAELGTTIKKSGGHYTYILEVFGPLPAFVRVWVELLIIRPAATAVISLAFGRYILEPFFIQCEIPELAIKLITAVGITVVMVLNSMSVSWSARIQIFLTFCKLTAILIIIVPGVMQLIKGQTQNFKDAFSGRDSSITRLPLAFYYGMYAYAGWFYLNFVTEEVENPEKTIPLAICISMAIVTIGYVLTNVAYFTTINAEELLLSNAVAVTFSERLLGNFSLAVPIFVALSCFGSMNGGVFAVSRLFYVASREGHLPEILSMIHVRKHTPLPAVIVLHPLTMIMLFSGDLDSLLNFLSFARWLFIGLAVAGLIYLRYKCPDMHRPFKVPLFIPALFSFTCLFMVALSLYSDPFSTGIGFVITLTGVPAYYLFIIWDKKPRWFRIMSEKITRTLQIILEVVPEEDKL
T2 sequence (P08195 1-529 partner): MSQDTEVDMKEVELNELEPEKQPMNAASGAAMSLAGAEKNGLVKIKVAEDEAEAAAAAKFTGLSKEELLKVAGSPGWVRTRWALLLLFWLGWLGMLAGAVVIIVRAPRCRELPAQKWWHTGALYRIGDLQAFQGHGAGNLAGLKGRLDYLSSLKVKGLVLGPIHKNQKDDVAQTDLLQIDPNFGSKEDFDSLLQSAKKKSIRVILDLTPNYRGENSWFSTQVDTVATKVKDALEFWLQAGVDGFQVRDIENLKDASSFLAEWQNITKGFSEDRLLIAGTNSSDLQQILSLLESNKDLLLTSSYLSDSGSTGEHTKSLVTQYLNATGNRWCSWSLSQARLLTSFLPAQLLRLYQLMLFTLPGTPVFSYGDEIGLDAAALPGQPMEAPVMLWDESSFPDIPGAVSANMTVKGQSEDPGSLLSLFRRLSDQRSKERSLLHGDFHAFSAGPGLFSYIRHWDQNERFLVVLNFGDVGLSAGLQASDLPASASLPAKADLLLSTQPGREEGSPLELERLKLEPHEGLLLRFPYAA

[1] = system: leukemia cell lines which express high levels of Slc29a1; details: graded levels of azacytidine in the presence of a tight binding Slc29a1 inhibitor

Sequence of Abcc1 (O35379 whole entry): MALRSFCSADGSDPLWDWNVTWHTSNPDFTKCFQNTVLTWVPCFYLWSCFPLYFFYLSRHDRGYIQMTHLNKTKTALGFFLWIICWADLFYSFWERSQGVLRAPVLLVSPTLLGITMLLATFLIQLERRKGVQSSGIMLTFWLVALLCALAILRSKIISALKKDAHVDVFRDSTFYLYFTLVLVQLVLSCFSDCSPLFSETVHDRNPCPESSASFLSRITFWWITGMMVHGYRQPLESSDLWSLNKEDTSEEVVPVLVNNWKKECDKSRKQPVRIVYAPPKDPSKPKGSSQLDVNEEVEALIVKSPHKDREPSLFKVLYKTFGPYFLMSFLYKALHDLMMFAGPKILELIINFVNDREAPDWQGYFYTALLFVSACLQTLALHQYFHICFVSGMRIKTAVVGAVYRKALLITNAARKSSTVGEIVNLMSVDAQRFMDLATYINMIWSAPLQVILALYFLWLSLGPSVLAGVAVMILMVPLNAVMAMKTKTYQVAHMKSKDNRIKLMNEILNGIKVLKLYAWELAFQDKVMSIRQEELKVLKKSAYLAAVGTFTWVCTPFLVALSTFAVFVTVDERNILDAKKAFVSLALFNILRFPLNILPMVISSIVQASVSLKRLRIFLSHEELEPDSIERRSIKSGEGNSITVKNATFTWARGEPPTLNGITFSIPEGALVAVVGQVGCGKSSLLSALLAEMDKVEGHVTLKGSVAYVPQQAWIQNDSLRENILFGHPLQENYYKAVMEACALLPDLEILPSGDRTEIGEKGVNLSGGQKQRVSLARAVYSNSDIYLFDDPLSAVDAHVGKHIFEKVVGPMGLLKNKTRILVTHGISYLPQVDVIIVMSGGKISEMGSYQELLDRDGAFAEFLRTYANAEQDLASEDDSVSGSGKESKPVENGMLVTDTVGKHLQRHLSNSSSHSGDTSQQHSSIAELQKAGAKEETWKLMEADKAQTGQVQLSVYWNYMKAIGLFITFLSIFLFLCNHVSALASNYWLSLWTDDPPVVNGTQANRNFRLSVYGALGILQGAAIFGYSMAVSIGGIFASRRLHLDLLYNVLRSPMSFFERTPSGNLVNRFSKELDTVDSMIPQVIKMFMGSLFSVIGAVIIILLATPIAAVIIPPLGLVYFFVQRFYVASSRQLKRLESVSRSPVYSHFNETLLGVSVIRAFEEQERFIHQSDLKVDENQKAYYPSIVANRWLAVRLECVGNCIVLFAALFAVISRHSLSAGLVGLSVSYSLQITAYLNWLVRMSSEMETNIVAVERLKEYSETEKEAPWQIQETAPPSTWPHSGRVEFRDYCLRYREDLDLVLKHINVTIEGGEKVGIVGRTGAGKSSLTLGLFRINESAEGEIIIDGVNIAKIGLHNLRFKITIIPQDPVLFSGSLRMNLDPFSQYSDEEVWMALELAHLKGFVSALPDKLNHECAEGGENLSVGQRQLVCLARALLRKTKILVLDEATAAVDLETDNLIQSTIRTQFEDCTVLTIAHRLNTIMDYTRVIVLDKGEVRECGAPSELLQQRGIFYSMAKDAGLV
Sequence of Abcb11 (Q9QY30 whole entry): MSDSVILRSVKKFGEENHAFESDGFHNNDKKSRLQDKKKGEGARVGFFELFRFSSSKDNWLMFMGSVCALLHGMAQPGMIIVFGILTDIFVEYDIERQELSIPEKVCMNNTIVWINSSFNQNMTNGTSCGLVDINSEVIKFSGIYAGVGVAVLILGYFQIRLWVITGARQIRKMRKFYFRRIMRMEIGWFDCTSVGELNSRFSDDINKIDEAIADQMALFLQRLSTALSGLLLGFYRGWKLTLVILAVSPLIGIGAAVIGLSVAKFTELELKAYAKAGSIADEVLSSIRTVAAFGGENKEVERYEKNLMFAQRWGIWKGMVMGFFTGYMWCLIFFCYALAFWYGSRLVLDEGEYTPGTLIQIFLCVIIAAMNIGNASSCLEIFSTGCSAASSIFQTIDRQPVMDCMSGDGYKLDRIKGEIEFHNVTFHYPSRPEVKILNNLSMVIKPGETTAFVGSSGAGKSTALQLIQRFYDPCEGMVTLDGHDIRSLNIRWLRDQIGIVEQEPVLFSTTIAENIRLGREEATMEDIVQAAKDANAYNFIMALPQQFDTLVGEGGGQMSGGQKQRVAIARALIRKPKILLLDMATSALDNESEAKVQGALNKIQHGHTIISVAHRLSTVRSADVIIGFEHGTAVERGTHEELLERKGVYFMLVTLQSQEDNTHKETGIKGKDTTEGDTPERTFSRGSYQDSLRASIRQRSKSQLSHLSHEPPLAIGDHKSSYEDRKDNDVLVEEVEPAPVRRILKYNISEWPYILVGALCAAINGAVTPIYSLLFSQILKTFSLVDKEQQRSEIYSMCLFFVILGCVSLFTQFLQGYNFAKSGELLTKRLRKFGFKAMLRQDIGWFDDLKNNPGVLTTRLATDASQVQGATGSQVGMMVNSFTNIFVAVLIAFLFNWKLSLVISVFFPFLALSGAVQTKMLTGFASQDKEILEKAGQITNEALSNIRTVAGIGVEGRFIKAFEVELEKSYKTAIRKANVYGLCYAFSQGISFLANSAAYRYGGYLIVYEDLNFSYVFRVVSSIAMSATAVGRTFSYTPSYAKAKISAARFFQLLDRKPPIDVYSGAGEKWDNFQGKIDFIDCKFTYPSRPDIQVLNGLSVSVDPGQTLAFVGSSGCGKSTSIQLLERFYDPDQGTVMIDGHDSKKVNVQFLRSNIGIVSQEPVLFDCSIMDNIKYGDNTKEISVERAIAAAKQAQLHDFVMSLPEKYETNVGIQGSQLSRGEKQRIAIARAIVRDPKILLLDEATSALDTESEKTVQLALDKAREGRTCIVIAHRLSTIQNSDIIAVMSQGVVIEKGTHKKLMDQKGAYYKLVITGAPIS
Sequence of Slc22a8 (Q9WTW5 whole entry): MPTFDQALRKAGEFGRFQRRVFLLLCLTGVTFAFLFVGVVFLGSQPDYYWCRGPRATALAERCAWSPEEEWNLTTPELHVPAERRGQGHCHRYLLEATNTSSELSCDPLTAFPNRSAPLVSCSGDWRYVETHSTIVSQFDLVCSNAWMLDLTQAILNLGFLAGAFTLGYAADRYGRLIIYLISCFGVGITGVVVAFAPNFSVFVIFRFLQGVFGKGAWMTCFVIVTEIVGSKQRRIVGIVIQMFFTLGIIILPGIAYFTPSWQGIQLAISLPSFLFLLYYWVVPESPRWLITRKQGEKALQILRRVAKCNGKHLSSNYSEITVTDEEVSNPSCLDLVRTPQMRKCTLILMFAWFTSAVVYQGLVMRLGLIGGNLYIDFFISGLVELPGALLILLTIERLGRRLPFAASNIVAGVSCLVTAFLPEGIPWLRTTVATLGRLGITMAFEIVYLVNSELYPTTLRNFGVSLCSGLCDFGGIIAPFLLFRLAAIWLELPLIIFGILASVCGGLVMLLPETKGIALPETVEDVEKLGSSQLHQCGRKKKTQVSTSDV

C[C@H]1O[C@@H](O[C@H]2[C@@H](O)C[C@H](O[C@H]3[C@@H](O)C[C@H](O[C@H]4CC[C@@]5(C)[C@H](CC[C@@H]6[C@@H]5C[C@@H](O)[C@]5(C)[C@@H](C7=CC(=O)OC7)CC[C@]65O)C4)O[C@@H]3C)O[C@@H]2C)C[C@H](O)[C@@H]1O [digoxin]
direct liver mediated excretion (Abcb1): moderate decrease

COc1cc([C@@H]2c3cc4c(cc3[C@@H](O[C@@H]3O[C@@H]5CO[C@@H](C)O[C@H]5[C@H](O)[C@H]3O)[C@H]3COC(=O)[C@H]23)OCO4)cc(OC)c1OP(=O)(O)O [Etoposide phosphate]
toxicity in transporter deficient mice compared to WT (Abcc1; Abcc1-/- vs WT mice, single dose): twice as toxic | white blood cell, bone marrow nucleated cell and spleen myeloid activity (Abcc1): severe depletion

C(=N\NC1=NCCN1)/c1c2ccccc2c(/C=N/NC2=NCCN2)c2ccccc12 [Bisantrene]
Drug resistance/sensitivity (Abcg2 & Abcb1): Taxol analog (S),

CC(=O)O[C@H]1C(=O)[C@@]2(C)[C@H]([C@H](OC(=O)c3ccccc3)[C@]3(O)C[C@H](OC(=O)[C@H](O)[C@@H](NC(=O)c4ccccc4)c4ccccc4)C(C)=C1C3(C)C)[C@]1(OC(C)=O)CO[C@@H]1C[C@@H]2O [paclitaxel]
direct liver mediated excretion (Abcb1): moderate decrease | organ penetration (Abcb1; brain, ovaries, adrenal gland and intestine of Abcb1-/- mice): increased penetration

NCCc1c[nH]cn1 [Histamine]
Drug resistance/sensitivity (Slc22a8): Histamine (S),

C[C@H](CCC(=O)NCCS(=O)(=O)O)[C@H]1CC[C@H]2[C@@H]3[C@H](O)C[C@@H]4C[C@H](O)CC[C@]4(C)[C@H]3C[C@H](O)[C@]12C [Taurocholate]
bile acid output increase (Abcb11; WT mice after Taurocholate injection): output; WT mice show a 20-fold | taurocholate output increase (Abcb11; WT mice after tail vein injection): 20 fold

Cn1c(N)nc2ncc(-c3ccccc3)cc21 [PhIP]
concentration (Abcg2): higher concentration | intestinal excretion (Abcg2): highly impaired

COc1cc([C@@H]2c3cc4c(cc3[C@@H](O[C@@H]3O[C@@H]5CO[C@@H](C)O[C@H]5[C@H](O)[C@H]3O)[C@H]3COC(=O)[C@H]23)OCO4)cc(OC)c1O [Etoposide]
white blood cell, bone marrow nucleated cell and spleen myeloid activity (Abcc1): depleted in Abcc1 mice. | Drug resistance/sensitivity (Abcc1; gene Abcc1): Etoposide (S)

C=CCNC1=C2C[C@@H](C)C[C@H](OC)[C@H](O)[C@@H](C)/C=C(\C)[C@H](OC(N)=O)[C@@H](OC)/C=C\C=C(/C)C(=O)NC(=CC1=O)C2=O [17AAG, 17-(allyl-amino)-17 denethoxygelandomycin]
sensitivity relative to GA (Slc7a11): 7.2 fold

Nc1ncn([C@@H]2O[C@H](CO)[C@@H](O)[C@H]2O)c(=O)n1 [azacytidine]
loss in cytotoxicity [1]: > 10 fold
